Experimental data from BindingDB's records for doi:10.1073/pnas.97.2.925 (Vanderbilt University School of Medicine, 2000).

Experiments:
[1] = target: T1, Prostaglandin G/H synthase 1 (Ovis aries, UniProt P05979)
T1 sequence (P05979 whole entry): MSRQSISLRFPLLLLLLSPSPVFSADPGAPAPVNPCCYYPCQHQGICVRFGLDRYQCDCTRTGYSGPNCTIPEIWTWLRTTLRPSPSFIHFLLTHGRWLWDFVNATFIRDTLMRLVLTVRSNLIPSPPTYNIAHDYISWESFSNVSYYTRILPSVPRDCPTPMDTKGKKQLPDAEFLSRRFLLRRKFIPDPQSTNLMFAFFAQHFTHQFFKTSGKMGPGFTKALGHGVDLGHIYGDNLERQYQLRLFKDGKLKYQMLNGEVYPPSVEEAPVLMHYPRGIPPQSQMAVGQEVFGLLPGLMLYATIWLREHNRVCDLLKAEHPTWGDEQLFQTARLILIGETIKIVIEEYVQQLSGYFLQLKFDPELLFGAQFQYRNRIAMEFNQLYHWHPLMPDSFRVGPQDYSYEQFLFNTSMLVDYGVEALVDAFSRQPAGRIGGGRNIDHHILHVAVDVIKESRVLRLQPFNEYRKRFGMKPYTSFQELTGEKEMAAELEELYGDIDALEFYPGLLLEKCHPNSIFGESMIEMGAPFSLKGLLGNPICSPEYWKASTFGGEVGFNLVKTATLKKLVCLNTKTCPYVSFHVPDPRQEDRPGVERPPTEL

[2] = target: T2, Prostaglandin G/H synthase 2 (Homo sapiens, UniProt P35354)
T2 sequence (P35354 whole entry): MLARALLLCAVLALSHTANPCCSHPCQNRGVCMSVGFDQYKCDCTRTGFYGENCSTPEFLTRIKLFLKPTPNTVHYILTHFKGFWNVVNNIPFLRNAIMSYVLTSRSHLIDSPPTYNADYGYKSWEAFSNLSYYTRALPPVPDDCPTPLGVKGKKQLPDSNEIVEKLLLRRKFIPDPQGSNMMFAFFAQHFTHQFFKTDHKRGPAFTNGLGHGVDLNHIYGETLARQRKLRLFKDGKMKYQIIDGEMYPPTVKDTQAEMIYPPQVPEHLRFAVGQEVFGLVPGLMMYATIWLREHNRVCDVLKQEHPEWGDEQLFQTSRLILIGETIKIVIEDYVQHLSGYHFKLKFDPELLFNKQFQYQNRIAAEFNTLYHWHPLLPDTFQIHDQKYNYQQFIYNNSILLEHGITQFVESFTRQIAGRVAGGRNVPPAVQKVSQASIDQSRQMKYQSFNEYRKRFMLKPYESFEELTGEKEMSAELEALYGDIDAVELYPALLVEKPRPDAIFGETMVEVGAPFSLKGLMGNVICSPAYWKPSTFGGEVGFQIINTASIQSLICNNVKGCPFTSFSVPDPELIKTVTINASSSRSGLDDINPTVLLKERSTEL

- IC50 [1]: 300 nM
- IC50 [2]: 400 nM
Structure (SMILES): Cc1ccc(Cl)c(Nc2ccccc2C(=O)NCC(=O)O)c1Cl [2-({2-[(2,6-dichloro-3-methylphenyl)amino]phenyl}formamido)acetic acid]
